Test results from US20080287662A1, “Balanites Aegyptiaca Saponins and Uses Thereof” (priority 2005, published 2008).
Marks after values point to notes of the source that are not given here. One block for each molecule: values may come before it.

Tests used:
[1] = test system: Pythium aphanidermatum; assay: Mycelial colony growth inhibition in vitro; format: cell-based
Experimental: Cultures of Pythium aphanindermatum were isolated from plant species showing Pythium symptoms. The isolate was placed in potato dextrose agar (PDA, Difco, Detroit, Mich., USA) supplemented with 100 ppm of streptomycin and incubated in the dark at 27° C. for 2 days. The colony of Pythium was identified visually and microscopically and sub-cultured on PDA without antibiotics as described by Tsror et al (2001).
For fungal growth inhibition measurements five concentrations of Balanites mesocarp saponin (ME) preparation (0.1, 0.5, 1.0, 2.0 and 4.0% w/v) and two concentrations of Metalaxyl-10 (a systemic benzenoid fungicide, 1 and 5 ppm as positive control) were added in separate Erlenmeyer flasks containing sterilized (121° C., 2 atm, 20 min) PDA, and mixed properly. Samples of PDA containing Balanites mesocarp saponin preparation and Metalaxyl-10 (15 ml) were poured into sterilized petri dishes separately and allowed to solidify. 5 mm in diameter agar plug of the fungal isolate was placed in the center of each plate. The plates were incubated at 27° C. (10 plates per treatment). The colony diameter of the mycelial growth was measured after 24 and 48 h and the inhibitory activity of each treatment was expressed as the growth inhibition percentage as compared to the negative control (0% ME preparation) using the formula: Growth inhibition percentage=[100-(Treatment growth/Control growth*100)].

[2] = test system: Aedes aegypti mosquito larvae; assay: Effect of purified main mesocarp saponin on Aedes aegypti larvae, pupa and adults; format: in vivo
Experimental: Eggs of laboratory-grown Aedes aegypti were hatched in tap water in a growth chamber with a 16-hour photoperiod, at a temperature of 25±3° C. Twenty to twenty five larvae at the late 3rd and early 4th instars were placed into 150-ml disposable plastic cups containing 100 ml of tap water together with water-soluble saponin solutions of various concentrations. During the experiments, treated and control (0 mg/L saponin) cups were examined after 2, 4, 9 and 11 days and number of alive larvae or adults were counted. The data are presented in percentage together with an analysis of variance using the Tukey-Kramer HSD test (SAS's JMP software) at the 0.01 level of significance.

[3] = test system: Escherichia coli; assay: Bacterial growth in LB (OD660); format: cell-based
Experimental: Standard Luria Broth solution (LB) was prepared using […] yeast extract, 10 mg NaCl and 10 mg Typtone per ml of DDW. A small portion of the Escherichia coil inoculum (LMC1492 strain, obtained from the Life Sciences Department of the Ben-Gurion University) was added to the LB solution in a sterilized Erlenmeyer and inoculated in a rotary water bath incubator at 250 rpm and 37° C. The tested extracts were first prepared in 5% in LB solution and used as stock solution for further dilution. Lower concentrations were obtained by mixing this stock solution in the required ratios with plain LB solution. The extract containing solution of the required concentrations were prepared in 10/140 mm glass test tubes in volumes of 1.8 ml each and incubated in a rotary water bath incubator (Gyvotory-676, New Brunswick Scientific Co. Inc, NY) at 250 rpm and 37° C.

[4] = test system: mung bean cuttings; assay: Rooting of mung bean cuttings; format: in vivo; conditions: IBA 100 μM, saponins 100 ppm; rooting assessed seven days
Experimental: This effect was increased as saponin concentration increased up to 500 ppm for Balanites mesocarp extract saponins and 50 ppm for Balanites root extract saponins, and up to 100 ppm for Quillaja saponaria bark extract saponins. The treatment solution was replaced by fresh water after 24 h and the rooting was assessed 10 days after the initiation of the experiment. The stimulating effect of saponins on root formation may be related to their hormone-like effect, but their effect on root elongation seems to be mainly due to their influence on increase of water uptake. The enhancing effect of saponins on rooting of mung bean cuttings when applied together with the synthetic plant hormone indole-3-butyric acid (IBA) is shown in Table 17. […] Similar, but weaker, enhancing effect was found with Quillaja bark extract saponins (the treatment solution was replaced by fresh water after 24 h and the rooting was assessed seven days after the initiation of the experiment).

[5] = test system: mung bean seeds and seedlings; assay: Mung bean germination, growth and development under saline water irrigation; format: in vivo; parameters: key to Germination (4 days): ++++ more advanced seedling; typical germination using tap water +++ (1 cm height with two leave starting to be expended); ++ less advanced seedling; + not germinated seedling; key to Foliage (14 days): aaaa more elongated seedlings; Typical mung bean foliage development 14 days after germination using tap water aaa (~10 cm seedling with fully expanded two leave and abscised cotyledons); aa less elongated seedlings; a dwarf seedling; key to Root: bbbb more elongated and branched roots; Typical mung bean root system 14 days after germination using tap water bbb (~6 cm well branched roots); bb less elongated roots; b short and necrotic root system; conditions: for Root: 14 days after germination
Experimental: Addition of Balanites mesocarp extract (ME) saponins in moderate concentration of […] to the irrigation saline water stimulated the germination and development of mung bean seeds in comparison to control. It also stimulated the germination of the seeds in comparison to control and to saline treatments. The effect on the foliage and the roots of the treated mung bean seedlings corresponded to the effect on the germination. These effects are directly related to the effect of Balanites mesocarp saponin treatment on water uptake by the mung bean seeds and germinated seedlings.

[6] = Vitamin C delivery through isolated rat skin; format: in vitro ADME; conditions: 25° C., 60% relative humidity
Experimental: The effect of Balanites mesocarp saponin preparation on delivery of vitamin C through the skin was tested using isolated rat skin system. 100 μl of saponin nanovesicles containing encapsulated vitamin C (2 mg) were prepared from saponin extracted from Balanites mesocarp by the procedure A described in Example 5(i) above. 15 μl of the preparation were loaded on an isolated rat skin in three replicates. The treatments were applied in a controlled environment (25° C. and 60% relative humidity) and incubated for 30 or 60 min. The solution delivered through the isolated skin was tested using an HPLC system for detecting the level of vitamin C corresponding to a standard peak of vitamin C.

[7] = Penetration rate of 14C-labeled 2,4-D across isolated leaf cuticle membranes with saponin adjuvant; parameters: species or system Citrus grandis; conditions: 1% (w/v) adjuvant, 30° C. and 30% RH

Molecule: CC(CCC1(O)O[C@H]2C[C@H]3[C@@H]4CC=C5C[C@@H](O[C@@H]6O[C@H](CO)[C@@H](O[C@@H]7O[C@H](CO)[C@@H](O)[C@H](O)[C@H]7O)[C@H](O)[C@H]6O[C@@H]6O[C@@H](C)[C@H](O)[C@@H](O)[C@H]6O)CC[C@]5(C)[C@H]4CC[C@]3(C)[C@H]2[C@@H]1C)CO[C@@H]1O[C@H](CO)[C@@H](O)[C@H](O)[C@H]1O (stereo partly drawn) [26-(O-β-D-glucopyranosyl)-3β,22,26-trihydroxyfurost-5-ene 3-O-β-D-glucopyranosyl-(1→4)-[α-L-rhamnopyranosyl-(1→2)]-β-D-glucopyranoside]
- % Growth inhibition ([1]; 0.1% w/v, 24 h): 4.29 ± 1.50 d %
- % Growth inhibition ([1]; 0.1% w/v, 48 h): 1.00 ± 0.01 e %
- % Growth inhibition ([1]; 0.5% w/v, 24 h): 13.96 ± 3.21 d %
- % Growth inhibition ([1]; 0.5% w/v, 48 h): 5.35 ± 1.32 e %
- % Growth inhibition ([1]; 1.0% w/v, 24 h): 66.39 ± 3.52 c %
- % Growth inhibition ([1]; 1.0% w/v, 48 h): 26.01 ± 2.95 c %
- % Growth inhibition ([1]; 2.0% w/v, 24 h): 81.96 ± 1.30 b %
- % Growth inhibition ([1]; 2.0% w/v, 48 h): 70.87 ± 2.57 b %
- % Growth inhibition ([1]; 4.0% w/v, 24 h): 82.47 ± 1.30 b %
- % Growth inhibition ([1]; 4.0% w/v, 48 h): 80.01 ± 0.42 b %
- % adults ([2]; 10 ppm, day 0): 0%
- % dead larvae ([2]; 10 ppm, day 0): 0%
- % pupa ([2]; 10 ppm, day 0): 0%
- % adults ([2]; 10 ppm, day 2): 0%
- % dead larvae ([2]; 10 ppm, day 2): 0 d %
- % pupa ([2]; 10 ppm, day 2): 0%
- % adults ([2]; 10 ppm, day 4): 0%
- % dead larvae ([2]; 10 ppm, day 4): 0 d %
- % pupa ([2]; 10 ppm, day 4): 41 ab %
- % adults ([2]; 10 ppm, day 9): 41 bc %
- % dead larvae ([2]; 10 ppm, day 9): 0 d %
- % pupa ([2]; 10 ppm, day 9): 0 b %
- % adults ([2]; 10 ppm, day 11): 87 a %
- % dead larvae ([2]; 10 ppm, day 11): 1.25 d %
- % pupa ([2]; 10 ppm, day 11): 0%
- % adults ([2]; 100 ppm, day 0): 0%
- % dead larvae ([2]; 100 ppm, day 0): 0%
- % pupa ([2]; 100 ppm, day 0): 0%
- % adults ([2]; 100 ppm, day 2): 0%
- % dead larvae ([2]; 100 ppm, day 2): 0 d %
- % pupa ([2]; 100 ppm, day 2): 0%
- % adults ([2]; 100 ppm, day 4): 0%
- % dead larvae ([2]; 100 ppm, day 4): 0 d %
- % pupa ([2]; 100 ppm, day 4): 45 a %
- % adults ([2]; 100 ppm, day 9): 70 a %
- % dead larvae ([2]; 100 ppm, day 9): 6.25 d %
- % pupa ([2]; 100 ppm, day 9): 0 b %
- % adults ([2]; 100 ppm, day 11): 85 a %
- % dead larvae ([2]; 100 ppm, day 11): 6.25 cd %
- % pupa ([2]; 100 ppm, day 11): 0%
- % adults ([2]; 300 ppm, day 0): 0%
- % dead larvae ([2]; 300 ppm, day 0): 0%
- % pupa ([2]; 300 ppm, day 0): 0%
- % adults ([2]; 300 ppm, day 2): 0%
- % dead larvae ([2]; 300 ppm, day 2): 50 c %
- % pupa ([2]; 300 ppm, day 2): 0%
- % adults ([2]; 300 ppm, day 4): 0%
- % dead larvae ([2]; 300 ppm, day 4): 50 c %
- % pupa ([2]; 300 ppm, day 4): 15 bc %
- % adults ([2]; 300 ppm, day 9): 15 d %
- % dead larvae ([2]; 300 ppm, day 9): 50 c %
- % pupa ([2]; 300 ppm, day 9): 33.25 a %
- % adults ([2]; 300 ppm, day 11): 50 b %
- % dead larvae ([2]; 300 ppm, day 11): 48.75 bc %
- % pupa ([2]; 300 ppm, day 11): 0%
- % adults ([2]; 500 ppm, day 0): 0%
- % dead larvae ([2]; 500 ppm, day 0): 0%
- % pupa ([2]; 500 ppm, day 0): 0%
- % adults ([2]; 500 ppm, day 2): 0%
- % dead larvae ([2]; 500 ppm, day 2): 77.5 b %
- % pupa ([2]; 500 ppm, day 2): 0%
- % adults ([2]; 500 ppm, day 4): 0%
- % dead larvae ([2]; 500 ppm, day 4): 78.75 b %
- % pupa ([2]; 500 ppm, day 4): 9.5 c %
- % adults ([2]; 500 ppm, day 9): 20 cd %
- % dead larvae ([2]; 500 ppm, day 9): 78.25 b %
- % pupa ([2]; 500 ppm, day 9): 1.75 b %
- % adults ([2]; 500 ppm, day 11): 22.5 c %
- % dead larvae ([2]; 500 ppm, day 11): 78.25 ab %
- % pupa ([2]; 500 ppm, day 11): 0%
- % adults ([2]; 800 ppm, day 0): 0%
- % dead larvae ([2]; 800 ppm, day 0): 0%
- % pupa ([2]; 800 ppm, day 0): 0%
- % adults ([2]; 800 ppm, day 2): 0%
- % dead larvae ([2]; 800 ppm, day 2): 95 a %
- % pupa ([2]; 800 ppm, day 2): 0%
- % adults ([2]; 800 ppm, day 4): 0%
- % dead larvae ([2]; 800 ppm, day 4): 95 a %
- % pupa ([2]; 800 ppm, day 4): 1.75 c %
- % adults ([2]; 800 ppm, day 9): 0 d %
- % dead larvae ([2]; 800 ppm, day 9): 93.75 a %
- % pupa ([2]; 800 ppm, day 9): 0 b %
- % adults ([2]; 800 ppm, day 11): 5 c %
- % dead larvae ([2]; 800 ppm, day 11): 94.25 a %
- % pupa ([2]; 800 ppm, day 11): 0%
- % adults ([2]; 1000 ppm, day 0): 0%
- % dead larvae ([2]; 1000 ppm, day 0): 0%
- % pupa ([2]; 1000 ppm, day 0): 0%
- % adults ([2]; 1000 ppm, day 2): 0%
- % dead larvae ([2]; 1000 ppm, day 2): 90 a %
- % pupa ([2]; 1000 ppm, day 2): 0%
- % adults ([2]; 1000 ppm, day 4): 0%
- % dead larvae ([2]; 1000 ppm, day 4): 94 a %
- % pupa ([2]; 1000 ppm, day 4): 3.75 c %
- % adults ([2]; 1000 ppm, day 9): 3.75 d %
- % dead larvae ([2]; 1000 ppm, day 9): 93.75 a %
- % pupa ([2]; 1000 ppm, day 9): 0 b %
- % adults ([2]; 1000 ppm, day 11): 3.75 c %
- % dead larvae ([2]; 1000 ppm, day 11): 96.25 a %
- % pupa ([2]; 1000 ppm, day 11): 0%
- growth inhibition ([3]; 1.0% (w/v)): 33.3%
- concentration up to which bacterial growth was increased ([3]; series 0.01-1.0% w/v): 0.5 % (w/v)

Molecule: O=C(O)CCCc1c[nH]c2ccccc12 [IBA, indole-3-butyric acid]
- Average root length [4]: 10.1 ± 0.4^cd mm
- Number of roots per cutting [4]: 28.3 ± 1.3^c

Molecule: [Cl-].[Na+] [NaCl]
- Foliage (14 days) ([5]; 75 mM): aa
- Germination (4 days) ([5]; 75 mM): ++
- Root ([5]; 75 mM): bbb
- Foliage (14 days) ([5]; 150 mM): a
- Germination (4 days) ([5]; 150 mM): +
- Root ([5]; 150 mM): bb

- Vitamin C level in skin ([6]; 30 minutes incubation): 259 ± 109 ng/cm^2 skin surface area
- Vitamin C level in skin ([6]; 60 minutes incubation): 326 ± 131 ng/cm^2 skin surface area
Molecule: O=C1O[C@H]([C@@H](O)CO)C(O)=C1O [Vitamin C, ascorbic acid]

Molecule: Triton X-100
- Factor increase (times) of penetration rate vs DDW [7]: 18.6 times
- Penetration rate of 2,4-D (^14C) [7]: 11.00 × 10^−5 a h^−1
- Factor increase (times) of penetration rate vs DDW ([7]; listed as Triton): 19.1 times
- Penetration rate of 2,4-D (^14C) ([7]; listed as Triton): 0.00011 h⁻¹
